Measured values published in PubChem BioAssay AID256 (DTP/NCI, 2004).
Where “and” joins values, the source holds several entries; their conditions need not be identical. Identical values can stand only once. Toxic doses and inconclusive results are not listed. How the source made its calls: active means survival T/C of 150% or more; inactive means T/C below 125% in these data.

Tested on: CD2F1 mice, L1210 leukemia ip, survival T/C
Assay: NCI In Vivo Anticancer Drug Screen. Data for tumor model L1210 Leukemia (intraperitoneal) in CD2F1 (CDF1) mice
Details: higher = longer survival
Method in brief: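 Vehicle-treated tumor-bearing mice served as controls (C) for compound-treated mice (T). Reported figure is T divided by C.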

[1] = endpoint: mean survival time, dose: 100.0 mg/kg/injection, schedule: Q04DX003 (ip), vehicle: Klucel (hydroxypropylcellulose) (HPC)
[2] = endpoint: mean survival time, dose: 200.0 mg/kg/injection, schedule: Q04DX003 (ip), vehicle: Klucel (hydroxypropylcellulose) (HPC)
[3] = endpoint: mean survival time, dose: 400.0 mg/kg/injection, schedule: Q04DX003 (ip), vehicle: Klucel (hydroxypropylcellulose) (HPC)
[4] = endpoint: mean survival time, dose: 100.0 mg/kg/injection, schedule: Q04DX002 (ip), vehicle: saline with Tween-80
[5] = endpoint: mean survival time, dose: 200.0 mg/kg/injection, schedule: Q04DX002 (ip), vehicle: saline with Tween-80
[6] = endpoint: mean survival time, dose: 400.0 mg/kg/injection, schedule: Q04DX002 (ip), vehicle: saline with Tween-80
[7] = endpoint: mean survival time, dose: 100.0 mg/kg/injection, schedule: Q01DX009 (ip), vehicle: saline with Tween-80
[8] = endpoint: mean survival time, dose: 100.0 mg/kg/injection, schedule: Q04DX003 (ip), vehicle: saline with Tween-80
[9] = endpoint: mean survival time, dose: 200.0 mg/kg/injection, schedule: Q01DX009 (ip), vehicle: saline with Tween-80
[10] = endpoint: mean survival time, dose: 200.0 mg/kg/injection, schedule: Q04DX003 (ip), vehicle: saline with Tween-80
[11] = endpoint: mean survival time, dose: 400.0 mg/kg/injection, schedule: Q01DX009 (ip), vehicle: saline with Tween-80
[12] = endpoint: mean survival time, dose: 400.0 mg/kg/injection, schedule: Q04DX003 (ip), vehicle: saline with Tween-80

Measured: T/C

O=C(O)CC(=O)O.[NH-]CC(O)C[N-]CC(O)CN.[Pt+2] (stereo not drawn)
inactive: endpoint: median survival time, dose: 10.0 mg/kg/injection, schedule: Q04DX003 (ip), vehicle: distilled water + Tween-80 101 % of control | endpoint: median survival time, dose: 20.0 mg/kg/injection, schedule: Q04DX003 (ip), vehicle: distilled water + Tween-80 101 % of control | endpoint: median survival time, dose: 40.0 mg/kg/injection, schedule: Q04DX003 (ip), vehicle: distilled water + Tween-80 104 % of control | endpoint: median survival time, dose: 66.5 mg/kg/injection, schedule: Q04DX003 (ip), vehicle: distilled water + Tween-80 107 % of control | endpoint: median survival time, dose: 80.0 mg/kg/injection, schedule: Q04DX003 (ip), vehicle: distilled water + Tween-80 106 % of control and 108 % of control | endpoint: median survival time, dose: 133.0 mg/kg/injection, schedule: Q04DX003 (ip), vehicle: distilled water + Tween-80 108 % of control | endpoint: median survival time, dose: 160.0 mg/kg/injection, schedule: Q04DX003 (ip), vehicle: distilled water + Tween-80 119 % of control | endpoint: median survival time, dose: 266.0 mg/kg/injection, schedule: Q04DX003 (ip), vehicle: distilled water + Tween-80 117 % of control | endpoint: median survival time, dose: 320.0 mg/kg/injection, schedule: Q04DX003 (ip), vehicle: distilled water + Tween-80 117 % of control

O=C(NC1CCCCC1)OCC#CC#CCOC(=O)NC1CCCCC1
inactive: [1] 94 % of control | [2] 96 % of control | [3] 100 % of control

N[C@@H](Cc1ccc(O)c(O)c1)C(=O)O
inactive: endpoint: mean survival time, dose: 25.0 mg/kg/injection, schedule: Q01DX009 (ip), vehicle: saline 98 % of control | endpoint: mean survival time, dose: 50.0 mg/kg/injection, schedule: Q01DX009 (ip), vehicle: saline 97 % of control | endpoint: mean survival time, dose: 100.0 mg/kg/injection, schedule: Q01DX009 (ip), vehicle: saline 96 % of control | [4] 103 % of control | endpoint: mean survival time, dose: 200.0 mg/kg/injection, schedule: Q01DX009 (ip), vehicle: saline 103 % of control | [5] 95 % of control | endpoint: mean survival time, dose: 400.0 mg/kg/injection, schedule: Q01DX009 (ip), vehicle: saline 108 % of control | [6] 98 % of control | endpoint: mean survival time, dose: 800.0 mg/kg/injection, schedule: Q01DX009 (ip), vehicle: saline 119 % of control

O=C(O)/C=C\C(=O)Nc1ccccc1
inactive: [7] 93 % of control | [8] 109 % of control | [9] 96 % of control | [10] 101 % of control | [11] 96 % of control | [12] 97 % of control

CCCCNC(C)C1(O)Cc2c(O)c3c(c(O)c2C(OC2CC(N)C(O)C(C)O2)C1)C(=O)c1c(OC)cccc1C3=O (stereo not drawn)
inactive: endpoint: mean survival time, dose: 10.0 mg/kg/injection, schedule: Q01DX009 (ip), vehicle: water 121 % of control | endpoint: mean survival time, dose: 160.0 mg/kg/injection, schedule: Q01DX009 (ip), vehicle: water 119 % of control

O=C(C[n+]1ccccc1)N/N=C/c1c(O)ccc2ccccc12
inactive: endpoint: mean survival time, dose: 25.0 mg/kg/injection, schedule: Q01DX009 (ip), vehicle: saline with Tween-80 100 % of control | endpoint: mean survival time, dose: 50.0 mg/kg/injection, schedule: Q01DX009 (ip), vehicle: saline with Tween-80 99 % of control | [7] 99 % of control

CCOC(=O)Nc1cc2c(c(N)n1)N=C(CN(C)c1ccc(OC)cc1)CN2
inactive: endpoint: mean survival time, dose: 0.78 mg/kg/injection, schedule: Q01DX009 (ip), vehicle: Klucel (hydroxypropylcellulose) (HPC) 118 % of control

O=C1C=C(c2ccccc2)C2(c3ccccc3)C1C1C(c3ccccc3)=C(c3ccccc3)C2C1(O)c1ccc2ccccc2c1 (stereo not drawn)
inactive: [7] 89 % of control | [9] 92 % of control | [11] 92 % of control

Nc1nc(N)c(N)c(/C=C/c2ccccc2)n1
inactive: endpoint: mean survival time, dose: 0.32 mg/kg/injection, schedule: Q01DX009 (ip), vehicle: other 101 % of control | endpoint: mean survival time, dose: 0.63 mg/kg/injection, schedule: Q01DX009 (ip), vehicle: other 106 % of control | endpoint: mean survival time, dose: 0.63 mg/kg/injection, schedule: Q01DX009 (ip), vehicle: water 97 % of control | endpoint: mean survival time, dose: 1.25 mg/kg/injection, schedule: Q01DX009 (ip), vehicle: other 98 % of control | endpoint: mean survival time, dose: 1.25 mg/kg/injection, schedule: Q01DX009 (ip), vehicle: water 103 % of control | endpoint: mean survival time, dose: 2.5 mg/kg/injection, schedule: Q01DX009 (ip), vehicle: other 101 % of control | endpoint: mean survival time, dose: 2.5 mg/kg/injection, schedule: Q01DX009 (ip), vehicle: water 97 % of control | endpoint: mean survival time, dose: 5.0 mg/kg/injection, schedule: Q01DX009 (ip), vehicle: other 101 % of control | endpoint: mean survival time, dose: 5.0 mg/kg/injection, schedule: Q01DX009 (ip), vehicle: water 97 % of control

Cn1c(CC(O)(C(F)(F)F)C(F)(F)F)cc(=O)n1-c1ccccc1
inactive: [8] 95 % of control | [10] 94 % of control

CCOC(=O)C12CCC(C1=O)C(C)(O)CC2 (stereo not drawn)
inactive: endpoint: mean survival time, dose: 50.0 mg/kg/injection, schedule: Q01DX009 (ip), vehicle: acetone 92 % of control | endpoint: mean survival time, dose: 100.0 mg/kg/injection, schedule: Q01DX009 (ip), vehicle: acetone 90 % of control | endpoint: mean survival time, dose: 200.0 mg/kg/injection, schedule: Q01DX009 (ip), vehicle: acetone 94 % of control

CC(C)(c1ccc(Nc2ccccc2)cc1)c1ccc(Nc2ccccc2)cc1
inactive: [1] 96 % of control | [2] 96 % of control | [3] 92 % of control

N.N.N.N.O=C([O-])C([O-])C(O)C(=O)[O-].O=[N+]([O-])[O-].[Co+3] (stereo not drawn)
inactive: endpoint: mean survival time, dose: 25.0 mg/kg/injection, schedule: Q04DX002 (ip), vehicle: saline with Tween-80 104 % of control | endpoint: mean survival time, dose: 50.0 mg/kg/injection, schedule: Q04DX002 (ip), vehicle: saline with Tween-80 110 % of control | [4] 110 % of control

CCOC(=O)C(CCC#N)(CCC#N)C(=O)OCC
inactive: [7] 91 % of control | [8] 96 % of control | [9] 94 % of control | [10] 102 % of control | [11] 94 % of control | [12] 104 % of control

CC(=O)C1CCC2C3CC=C4CC(n5c(=O)cc[nH]c5=O)CCC4(C)C3CCC12C (stereo not drawn)
inactive: endpoint: mean survival time, dose: 12.5 mg/kg/injection, schedule: Q04DX003 (ip), vehicle: Klucel (hydroxypropylcellulose) (HPC) 97 % of control | endpoint: mean survival time, dose: 25.0 mg/kg/injection, schedule: Q04DX003 (ip), vehicle: Klucel (hydroxypropylcellulose) (HPC) 98 % of control | endpoint: mean survival time, dose: 50.0 mg/kg/injection, schedule: Q04DX003 (ip), vehicle: Klucel (hydroxypropylcellulose) (HPC) 101 % of control and 103 % of control | [1] 92 % of control and 101 % of control | [2] 95 % of control | [3] 90 % of control

O=c1[nH]c(C(Cl)(Cl)Cl)nc2ccc(Cl)cc12
inactive: [8] 101 % of control | [10] 96 % of control | [12] 98 % of control

Clc1ccc(COc2ccc(Cl)cc2Cn2ccnc2)c(Cl)c1
inactive: [7] 101 % of control | [9] 95 % of control | [11] 98 % of control

C=CC[n+]1ccccc1/C=C\c1ccc(N(C)C)cc1
inactive: endpoint: mean survival time, dose: 75.0 mg/kg/injection, schedule: Q01DX001 (ip), vehicle: saline 118 % of control

Cc1ccc(S(=O)(=O)OCC2OCOC(COS(=O)(=O)c3ccc(C)cc3)C(OS(=O)(=O)c3ccc(C)cc3)C2OS(=O)(=O)c2ccc(C)cc2)cc1 (stereo not drawn)
inactive: [4] 88 % of control | [5] 100 % of control | [6] 107 % of control
